Experimental findings from patent US11083717B2, “Compositions and methods for drug sensitization of parasites” (The Texas A&M University System, priority 2015, dated 2021) are described below.

Molecules are shown by their SMILES. Read-outs that look alike come from different tables or passages of the source. A value given as a limit tells only on which side of the number the result lay.

In one data set the test system is S. cerevisiae. The data set is described as follows: in vitro. Conditions: Saccharomyces cerevisiae. An excerpt: (§1) These tests included an IL-12 mouse model test to determine compound efficacy, verification of MIC50 for CP, cytotoxicity test for fibroblasts and yeast to determine potential toxic effects, a Human ether-a-go-go-related gene (hERG) test to determine potential cardiotoxicity, an AMES test tp determine mutagenic potential, a Safety Screen 44 test to determine common negative off-target drug interastion (Eurofins Cerep, SA, France), a cytochrome P450 (CYP) test to determine potential liver toxicity, a maximum tolerated dose, test, a Pharmacokinetics (PK) test to determine fate of the substance administered to a living organism tests for plasma stability in human and mouse, to measure the degradation of compound in plasma MClint and HClint test to determine in vitro intrinsic clearance for Mouse and Human, and kinetic solubility and plasma protein binding tests in mouse and human.

The subject of another data set is human fibroblast. Put plainly: in vitro.
Excerpt: as §1

For `CONC(=O)C(C)c1ccc(Oc2nc3ccc(Cl)cc3s2)cc1` (stereo not shown) [NZ-313, 2-{4-[(6-chloro-1,3-benzothiazol-2-yl)oxy]phenyl}-N-methoxypropanamide], the “concentrations at which not toxic, S. cerevisiae cytotoxicity testing” value with S. cerevisiae was no less than 100 µM. Moreover, the “concentrations at which not toxic, human fibroblast cytotoxicity testing” value in the data set with human fibroblast (human) was no less than 100 µM.

Regarding `CC(C)NC(=O)Nc1ccc(Oc2nc3cc(Cl)c(Cl)cc3s2)cc1` [NZ-393, 1-{4-[(5,6-dichloro-1,3-benzothiazol-2-yl)oxy]phenyl}-3-(propan-2-yl)urea], in the data set on S. cerevisiae, the “concentrations at which not toxic, S. cerevisiae cytotoxicity testing” value was no less than 100 µM. Moreover, in the data set on human fibroblast, the “concentrations at which not toxic, human fibroblast cytotoxicity testing” value was no less than 100 µM.

For the compound `CC(C)NC(=O)Nc1ccc(Oc2nc3cc(F)c(F)cc3s2)cc1` [NZ-382, 1-{4-[(5,6-difluoro-1,3-benzothiazol-2-yl)oxy]phenyl}-3-(propan-2-yl)urea], the “concentrations at which not toxic, S. cerevisiae cytotoxicity testing” value in the data set on S. cerevisiae was in the range of 50 to 100 µM. Also, in the data set with human fibroblast (human), the “concentrations at which not toxic, human fibroblast cytotoxicity testing” value is no less than 100 µM.

On to `Nc1ccc(Oc2nc3ccc(F)cc3s2)cc1` [NZ-413, 4-[(6-fluoro-1,3-benzothiazol-2-yl)oxy]aniline], for which, in the data set with S. cerevisiae, the “concentrations at which not toxic, S. cerevisiae cytotoxicity testing” value was no less than 100 µM. Besides, the “concentrations at which not toxic, human fibroblast cytotoxicity testing” value in the data set on human fibroblast (human) is no less than 100 µM.

As for `CNC(=O)Cc1ccc(Oc2nc3ccc(Cl)cc3s2)cc1OC` [NZ-392, 2-{4-[(6-chloro-1,3-benzothiazol-2-yl)oxy]-2-methoxyphenyl}-N-methylacetamide], the “concentrations at which not toxic, S. cerevisiae cytotoxicity testing” value in the data set on S. cerevisiae is no less than 100 µM. In addition, the “concentrations at which not toxic, human fibroblast cytotoxicity testing” value in the data set with human fibroblast was no less than 100 µM.

Consider `CC(C)ONC(=O)COc1ccc(Oc2cnc3cc(Cl)ccc3n2)cc1` [NZ-326, 2-{4-[(6-chloroquinoxalin-2-yl)oxy]phenoxy}-N-(propan-2-yloxy)acetamide], for which the “concentrations at which not toxic, S. cerevisiae cytotoxicity testing” value in the data set on S. cerevisiae is no less than 100 µM. The “concentrations at which not toxic, human fibroblast cytotoxicity testing” value in the data set with human fibroblast is no less than 100 µM.

As to `O=C(O)Cc1ccc(Oc2cnc3cc(Cl)ccc3n2)cc1` [NZ-298, 2-{4-[(6-chloroquinoxalin-2-yl)oxy]phenyl}acetic acid], the “concentrations at which not toxic, S. cerevisiae cytotoxicity testing” value with S. cerevisiae was no less than 100 µM. Further, the “concentrations at which not toxic, human fibroblast cytotoxicity testing” value with human fibroblast (human) is no less than 100 µM.

For `CONC(=O)COc1ccc(Oc2nc3ccc(F)cc3s2)cc1` [NZ-305, 2-{4-[(6-fluoro-1,3-benzothiazol-2-yl)oxy]phenoxy}-N-methoxyacetamide], the “concentrations at which not toxic, S. cerevisiae cytotoxicity testing” value in the data set on S. cerevisiae is no less than 100 µM. Moreover, the “concentrations at which not toxic, human fibroblast cytotoxicity testing” value in the data set with human fibroblast (human) is no less than 100 µM.

As to `COC(=O)C(C)(C)Oc1ccc(Oc2nc3ccc(Cl)cc3s2)cc1` [NZ-317, methyl 2-{4-[(6-chloro-1,3-benzothiazol-2-yl)oxy]phenoxy}-2-methylpropanoate], the “concentrations at which not toxic, S. cerevisiae cytotoxicity testing” value in the data set on S. cerevisiae was no less than 100 µM. Besides, the “concentrations at which not toxic, human fibroblast cytotoxicity testing” value in the data set on human fibroblast (human) was no less than 100 µM.

Regarding `CONC(=O)C(C)c1ccc(Oc2nc3ccc(OC)cc3s2)cc1` (stereo not shown) [NZ-335, N-methoxy-2-{4-[(6-methoxy-1,3-benzothiazol-2-yl)oxy]phenyl}propanamide], the “concentrations at which not toxic, S. cerevisiae cytotoxicity testing” value with S. cerevisiae was no less than 100 µM. In addition, the “concentrations at which not toxic, human fibroblast cytotoxicity testing” value with human fibroblast (human) is no less than 100 µM.

Consider `COC(=O)C(C)c1ccc(Oc2nc3ccc(F)cc3s2)cc1` (stereo not shown) [NZ-328, methyl 2-{4-[(6-fluoro-1,3-benzothiazol-2-yl)oxy]phenyl}propanoate], for which, in the data set on S. cerevisiae, the “concentrations at which not toxic, S. cerevisiae cytotoxicity testing” value was no less than 100 µM. The “concentrations at which not toxic, human fibroblast cytotoxicity testing” value with human fibroblast (human) was no less than 100 µM.

For `CNC(=O)Cc1ccc(O)cc1Oc1nc2ccc(Cl)cc2s1` [NZ-390, 2-{2-[(6-chloro-1,3-benzothiazol-2-yl)oxy]-4-hydroxyphenyl}-N-methylacetamide], the “concentrations at which not toxic, S. cerevisiae cytotoxicity testing” value in the data set on S. cerevisiae is no less than 100 µM. For the same compound, the “concentrations at which not toxic, human fibroblast cytotoxicity testing” value in the data set with human fibroblast (human) was no less than 100 µM.

On to `O=C(O)Cc1ccc(Oc2nc3ccc(F)cc3s2)cc1` [NZ-299, 2-{4-[(6-fluoro-1,3-benzothiazol-2-yl)oxy]phenyl}acetic acid], for which the “concentrations at which not toxic, S. cerevisiae cytotoxicity testing” value in the data set on S. cerevisiae was no less than 100 µM. The “concentrations at which not toxic, human fibroblast cytotoxicity testing” value in the data set on human fibroblast is no less than 100 µM.

With `CC(C)NC(=O)Nc1ccc(Oc2nc3ccc(CO)cc3s2)cc1` [NZ-381, 1-(4-{[6-(hydroxymethyl)-1,3-benzothiazol-2-yl]oxy}phenyl)-3-(propan-2-yl)urea], the “concentrations at which not toxic, S. cerevisiae cytotoxicity testing” value in the data set on S. cerevisiae was no less than 100 µM. Further, the “concentrations at which not toxic, human fibroblast cytotoxicity testing” value in the data set on human fibroblast (human) was no less than 100 µM.

As to `CC(C)NC(=O)Nc1ccc(Oc2nc3ccc(Cl)cc3s2)c[n+]1[O-]` [NZ-391, 1-{5-[(6-chloro-1,3-benzothiazol-2-yl)oxy]-1-oxo-1λ^5-pyridin-2-yl}-3-(propan-2-yl)urea], the “concentrations at which not toxic, S. cerevisiae cytotoxicity testing” value in the data set on S. cerevisiae is no less than 100 µM. In the data set on human fibroblast (human), the “concentrations at which not toxic, human fibroblast cytotoxicity testing” value was no less than 100 µM.

For the compound `CC(C)NC(=O)Cn1ccc(Oc2nc3ccc(Cl)cc3s2)cc1=O` [NZ-404, 2-{4-[(6-chloro-1,3-benzothiazol-2-yl)oxy]-2-oxo-1,2-dihydropyridin-1-yl}-N-(propan-2-yl)acetamide], in the data set with S. cerevisiae, the “concentrations at which not toxic, S. cerevisiae cytotoxicity testing” value was no less than 100 µM. Besides, the “concentrations at which not toxic, human fibroblast cytotoxicity testing” value with human fibroblast (human) is no less than 100 µM.

In the case of `CC(C)NC(=O)N(C)c1ccc(Oc2nc3ccc(Cl)cc3s2)cc1` [NZ-388, 1-{4-[(6-chloro-1,3-benzothiazol-2-yl)oxy]phenyl}-1-methyl-3-(propan-2-yl)urea], in the data set on S. cerevisiae, the “concentrations at which not toxic, S. cerevisiae cytotoxicity testing” value is no less than 100 µM. In addition, the “concentrations at which not toxic, human fibroblast cytotoxicity testing” value in the data set on human fibroblast was no less than 100 µM.

With `CC(C(=O)N1CCN(CC(F)(F)F)CC1)c1ccc(Oc2nc3ccc(Cl)cc3s2)cc1` (stereo not shown) [NZ-512], the “concentrations at which not toxic, S. cerevisiae cytotoxicity testing” value in the data set on S. cerevisiae is no less than 100 µM. The “concentrations at which not toxic, human fibroblast cytotoxicity testing” value with human fibroblast (human) was no less than 100 µM.

Consider `CC(C)NC(=O)Nc1ccc(Oc2nc3ccc(O)cc3s2)cc1` [NZ-362, 1-{4-[(6-hydroxy-1,3-benzothiazol-2-yl)oxy]phenyl}-3-(propan-2-yl)urea], for which, in the data set on S. cerevisiae, the “concentrations at which not toxic, S. cerevisiae cytotoxicity testing” value is no less than 100 µM. Also, the “concentrations at which not toxic, human fibroblast cytotoxicity testing” value in the data set on human fibroblast (human) is no less than 100 µM.

On to `NCCC(=O)Nc1ccc(Oc2nc3ccc(F)cc3s2)cc1` [NZ-416, 3-amino-N-{4-[(6-fluoro-1,3-benzothiazol-2-yl)oxy]phenyl}propanamide], for which the “concentrations at which not toxic, S. cerevisiae cytotoxicity testing” value in the data set on S. cerevisiae is no less than 100 µM. Moreover, the “concentrations at which not toxic, human fibroblast cytotoxicity testing” value in the data set with human fibroblast (human) was no less than 100 µM.

On to `CC(C)NC(=O)Nc1ccc(Oc2nc3cc(F)ccc3s2)cc1` [NZ-373, 1-{4-[(5-fluoro-1,3-benzothiazol-2-yl)oxy]phenyl}-3-(propan-2-yl)urea], for which the “concentrations at which not toxic, S. cerevisiae cytotoxicity testing” value in the data set with S. cerevisiae is no less than 100 µM. Further, the “concentrations at which not toxic, human fibroblast cytotoxicity testing” value with human fibroblast is no less than 100 µM.

Consider `COC(=O)C(O)c1ccc(Oc2nc3ccc(Cl)cc3s2)cc1` (stereo not shown) [NZ-336, methyl 2-{4-[(6-chloro-1,3-benzothiazol-2-yl)oxy]phenyl}-2-hydroxyacetate], for which, in the data set on S. cerevisiae, the “concentrations at which not toxic, S. cerevisiae cytotoxicity testing” value was 50 to 100 µM. Further, the “concentrations at which not toxic, human fibroblast cytotoxicity testing” value with human fibroblast (human) fell in the range of 50 to 100 µM.

`O=C(O)Cn1ccc(Oc2nc3ccc(Cl)cc3s2)cc1=O` [NZ-397, 2-{4-[(6-chloro-1,3-benzothiazol-2-yl)oxy]-2-oxo-1,2-dihydropyridin-1-yl}acetic acid]: the “concentrations at which not toxic, S. cerevisiae cytotoxicity testing” value in the data set with S. cerevisiae was no less than 100 µM. Further, the “concentrations at which not toxic, human fibroblast cytotoxicity testing” value in the data set on human fibroblast was no less than 100 µM.

As for `CC(C)NC(=O)Cc1ccc(O)cc1Oc1nc2ccc(F)cc2s1` [NZ-406, 2-{2-[(6-fluoro-1,3-benzothiazol-2-yl)oxy]-4-hydroxyphenyl}-N-(propan-2-yl)acetamide], in the data set on S. cerevisiae, the “concentrations at which not toxic, S. cerevisiae cytotoxicity testing” value was no less than 100 µM. Further, the “concentrations at which not toxic, human fibroblast cytotoxicity testing” value with human fibroblast (human) was no less than 100 µM.

Regarding `CCOC(=O)c1ccc2nc(Oc3ccc(NC(=O)NC(C)C)cc3)sc2c1` [NZ-378, ethyl 2-(4-{[(propan-2-yl)carbamoyl]amino}phenoxy)-1,3-benzothiazole-6-carboxylate], the “concentrations at which not toxic, S. cerevisiae cytotoxicity testing” value with S. cerevisiae was no less than 100 µM. Besides, the “concentrations at which not toxic, human fibroblast cytotoxicity testing” value with human fibroblast (human) is no less than 100 µM.

Turning to `CONC(=O)C(C)c1ccc(Oc2nc3ccc(F)cc3s2)cc1` (stereo not shown) [NZ-330, 2-{4-[(6-fluoro-1,3-benzothiazol-2-yl)oxy]phenyl}-N-methoxypropanamide], in the data set on S. cerevisiae, the “concentrations at which not toxic, S. cerevisiae cytotoxicity testing” value is no less than 100 µM. Also, the “concentrations at which not toxic, human fibroblast cytotoxicity testing” value with human fibroblast (human) is no less than 100 µM.

Turning to `O=C(O)C(O)c1ccc(Oc2nc3ccc(Cl)cc3s2)cc1` (stereo not shown) [NZ-337, 2-{4-[(6-chloro-1,3-benzothiazol-2-yl)oxy]phenyl}-2-hydroxyacetic acid], the “concentrations at which not toxic, S. cerevisiae cytotoxicity testing” value in the data set with S. cerevisiae is no less than 100 µM. Further, in the data set with human fibroblast (human), the “concentrations at which not toxic, human fibroblast cytotoxicity testing” value was no less than 100 µM.

Consider `COC(=O)Cn1ccc(Oc2nc3ccc(Cl)cc3s2)cc1=O` [NZ-396, methyl 2-{4-[(6-chloro-1,3-benzothiazol-2-yl)oxy]-2-oxo-1,2-dihydropyridin-1-yl}acetate], for which the “concentrations at which not toxic, S. cerevisiae cytotoxicity testing” value with S. cerevisiae was no less than 100 µM. In addition, the “concentrations at which not toxic, human fibroblast cytotoxicity testing” value with human fibroblast (human) is no less than 100 µM.

For the compound `CC(C(=O)N1CCN(C2CC2)CC1)c1ccc(Oc2nc3ccc(Cl)cc3s2)cc1` (stereo not shown) [NZ-511, 2-{4-[(6-chloro-1,3-benzothiazol-2-yl)oxy]phenyl}-1-(4-cyclopropylpiperazin-1-yl)propan-1-one], the “concentrations at which not toxic, S. cerevisiae cytotoxicity testing” value in the data set on S. cerevisiae is no less than 100 µM. Further, in the data set with human fibroblast (human), the “concentrations at which not toxic, human fibroblast cytotoxicity testing” value is no less than 100 µM.
